Measured values published in patent US8188059B2, “Compounds and methods for modulating expression of GCGR” (Isis Pharmaceuticals, Inc., priority 2006, dated 2012).
Strand notation (5' to 3'): a small letter for the sugar, then the base; units joined by * are phosphorothioate-linked, units joined directly phosphodiester-linked; [ ] holds rarer units or linkages, { } end groups; capitals alone tell only the bases. e = 2'-O-(2-methoxyethyl) (MOE); [5mC] = 5-methylcytosine; d = 2'-deoxy (DNA)

Tests used:
Type in all cases: in vivo, mouse
[1] = test system: SGLT2 mRNA; assay: SGLT2 mRNA levels in kidney of Balb/c mice, twenty 1-10-1 MOE gapmers at 350 nmol/kg, PPS 534 and PPS 553 (Example 18, Table 74); settings: 350 nmol/kg i.p. twice per week for two weeks
Procedure: Twenty 1-10-1 MOE gapmers that are complementary to human/monkey/mouse/rat SGLT2 were designed, synthesized and tested in vivo for suppression of SGLT2 mRNA levels in kidney. Data are averages from two experiments in which male 6-week old Balb/c mice were administered intraperitoneal injections of 350 nmol/kg of oligonucleotide, twice per week, over a period of two weeks (a total of four injections). Mice were sacrificed 48 hours following the last administration and evaluated for SGLT2 mRNA levels in kidney. SGLT2 mRNA levels were determined by quantitative real-time PCR analysis according to standard procedures, using two different PCR primer probe sets, primer probe set (PPS) 534 and PPS 553. SGLT2 mRNA levels were normalized to cyclophilin mRNA levels, which were also measured by quantitative real-time PCR.

[2] = test system: GCGR mRNA; assay: GCGR mRNA levels in liver of C57/BL6 mice, single i.p. dose (Example 4, Tables 35-41); settings: liver, single i.p. dose, 48 hours
Procedure: (§1) Eight-week old male C57/BL6 mice (Jackson Laboratory, Bar Harbor, Me.) were administered a single dose of GCGR oligonucleotide by intraperitoneal injection at a concentration of […]. Each dose group consisted of four animals. Shown in Table 31 are the sequences, motifs and conjugates of the GCGR antisense compounds used in this study. Bolded residues indicate 2′-O-methoxyethyl (2′-MOE) moieties. All compounds comprise phosphorothioate internucleoside linkages throughout and each cytosine is replaced with 5-methylcytosine. ISIS 386626, ISIS 386627 and ISIS 386628 further comprise a C16 conjugate group attached to the 2′-O position of the sugar via a diamide linkage (2′-OCH2C(═O)N(H)(CH2)4N(H)C(═O)—(CH2)15CH3). GCGR antisense compounds target published GCGR sequences, including Genbank® Accession No. BC031885.1 (SEQ ID NO: 7).
(§2) Mice were sacrificed 48 hours following injection to determine serum transaminase levels (Table 32); liver, white adipose tissue (WAT), spleen and kidney weight (Table 33); cholesterol, triglyceride and glucose levels (Table 34); GCGR mRNA levels (Tables 35-41); and full-length and total oligonucleotide concentration in liver and kidney (Table 42). Endpoints were assessed using methods described herein and well known to those of ordinary skill in the art. Data is included from a pre-treatment bleed (Pre-Bleed) and post-treatment bleed (Post-Bleed).
To determine whether the phenotypic changes shown above correlated with a decrease in GCGR mRNA, treated animals were evaluated for levels of target mRNA in liver by real time PCR according to methods described herein. Tables 35 to 41 show results from direct comparisons of the antisense compounds targeting GCGR nucleic acid for their effect on target expression. Results are expressed as percent of saline control.

[3] = Triglyceride, cholesterol and glucose levels, pre-bleed and post-bleed (Example 4, Table 34); settings: C57/BL6 mice, single i.p. dose, 48 hours
Procedure: as §1, §2

| Substance | SGLT2 mRNA in kidney, % change relative to saline ([1]; primer probe set 534) [%] | SGLT2 mRNA in kidney, % change relative to saline ([1]; primer probe set 553) [%] | GCGR mRNA expression [2] | post-bleed glucose levels [3] |
| --- | --- | --- | --- | --- |
| 379696 (antisense e[5mC]*dA*dG*d[5mC]*dT*dT*d[5mC]*dA*dG*dG*dT*eA) [compound 379696] | −24.6 | −36.2 |  |  |
| 379687 (antisense eG*dA*dT*dG*dT*dT*dG*d[5mC]*dT*dG*dG*e[5mC]) [compound 379687] | −47.1 | −52.1 |  |  |
| 379691 (antisense eA*dG*dA*dT*d[5mC]*dT*dT*dG*dG*dT*dG*eA) [compound 379691] | −35.0 | −48.6 |  |  |
| ISIS 386626: GCGR 2-10-2 MOE gapmer with C16 conjugate group at the 2′-O position via a diamide linkage (antisense GCTTCTCCATCATA; chemistry not fully specified) |  |  | greatest decrease | decreased in a dose-dependent manner |
| 379697 (antisense e[5mC]*dT*dG*dG*d[5mC]*dA*dT*dG*dA*d[5mC]*d[5mC]*eA) [compound 379697] | −32.0 | −46.3 |  |  |
| 379703 (antisense eG*d[5mC]*d[5mC]*dG*dG*dA*dG*dA*d[5mC]*dT*dG*eA) [compound 379703] | −44.2 | −45.9 |  |  |
| 379699 (antisense eG*dG*d[5mC]*dA*dT*dG*dA*dG*d[5mC]*dT*dT*e[5mC]) [compound 379699] | −83.5 | −85.8 |  |  |
| 379695 (antisense eG*dG*dA*d[5mC]*dA*d[5mC]*d[5mC]*dG*dT*d[5mC]*dA*eG) [compound 379695] | −52.5 | −64.1 |  |  |
| 379686 (antisense eA*d[5mC]*d[5mC]*dA*d[5mC]*dA*dA*dG*d[5mC]*d[5mC]*dA*eA) [compound 379686] | −71.9 | −75.1 |  |  |
| 379685 (antisense eT*dG*dA*d[5mC]*d[5mC]*dA*dG*d[5mC]*dA*dG*dG*eA) [compound 379685] | −10.3 | −20.5 |  |  |
| 379692 (antisense eT*dG*dT*dT*d[5mC]*d[5mC]*dA*dG*d[5mC]*d[5mC]*d[5mC]*eA) [compound 379692] | −88.1 | −88.5 |  |  |
